Data: US8969335B2, “Benzonitrile derivatives as kinase inhibitors” (MERCK PATENT GmbH, priority 2011, dated 2015)

Key:
[1] = biological target: TANK binding kinase (TBK1) (Homo sapiens (Human), UniProt Q9UHD2); assay: TBK1 enzyme assay (384-well flashplate kinase assay); type: biochemical; settings: 0.6 nM TBK1, 10 μM ATP, 30° C., 120 min
IKKε = IKKε (Homo sapiens (Human), UniProt Q14164); assay: IKKε kinase assay (384-well flashplate assay); type: biochemical; settings: 1 nM IKKε, 10 μM ATP, 30° C., 2 hours; read-out: IKKε enzyme assay IC50
Protocol: Test for the Inhibition of IKKε
IKKε—Kinase Assay (IKKepsilon)
The kinase assay is performed as 384-well flashplate assay (for example for Topcount measurement).
1 nM IKKε, 800 nM biotinylated IκBα(19-42) peptide (Biotin-C6-C6-[…]) and 10 μM ATP (spiked with 0.3 μCi of ^33P-ATP/well) are incubated at 30° C. for 2 hours in a total volume of 50 μl (10 mM MOPS, 10 mM Mg acetate, 0.1 mM EGTA, 1 mM dithiothreitol, 0.02% of Brij35, 0.1% of BSA, 0.1% of BioStab, pH 7.5) with or without test compound. The reaction is stopped using 25 μl of 200 mM EDTA. After 30 min at room temperature, the liquid is removed, and each well is washed three times with 100 μl of 0.9% sodium chloride solution. Non-specific reaction is determined in the presence of 3 μM MSC2119074 (BX-795). The radioactivity is measured using a Topcount (PerkinElmer). The results (for example IC50 values) are calculated using program tools provided by the IT Department (for example AssayExplorer, Symyx).

Sequence of TANK binding kinase (TBK1) (Q9UHD2 whole entry): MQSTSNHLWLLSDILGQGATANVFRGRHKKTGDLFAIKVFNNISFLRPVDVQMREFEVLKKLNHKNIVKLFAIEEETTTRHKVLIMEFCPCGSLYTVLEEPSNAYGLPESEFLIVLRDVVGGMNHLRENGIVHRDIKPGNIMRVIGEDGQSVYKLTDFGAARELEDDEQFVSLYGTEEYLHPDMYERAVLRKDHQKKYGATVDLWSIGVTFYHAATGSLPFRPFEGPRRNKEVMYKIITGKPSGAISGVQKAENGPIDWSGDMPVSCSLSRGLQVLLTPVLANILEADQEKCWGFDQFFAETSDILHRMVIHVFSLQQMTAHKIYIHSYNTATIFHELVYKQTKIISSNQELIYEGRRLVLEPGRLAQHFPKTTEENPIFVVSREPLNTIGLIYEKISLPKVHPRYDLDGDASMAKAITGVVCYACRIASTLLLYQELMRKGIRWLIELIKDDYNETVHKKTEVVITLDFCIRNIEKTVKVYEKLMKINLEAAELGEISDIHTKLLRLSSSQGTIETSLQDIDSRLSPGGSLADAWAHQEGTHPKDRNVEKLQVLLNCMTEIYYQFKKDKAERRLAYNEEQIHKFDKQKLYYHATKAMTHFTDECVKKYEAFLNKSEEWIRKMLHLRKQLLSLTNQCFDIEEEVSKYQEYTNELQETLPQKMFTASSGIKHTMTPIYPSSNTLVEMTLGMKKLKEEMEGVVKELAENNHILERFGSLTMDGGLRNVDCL
Sequence of IKKε (Q14164 whole entry): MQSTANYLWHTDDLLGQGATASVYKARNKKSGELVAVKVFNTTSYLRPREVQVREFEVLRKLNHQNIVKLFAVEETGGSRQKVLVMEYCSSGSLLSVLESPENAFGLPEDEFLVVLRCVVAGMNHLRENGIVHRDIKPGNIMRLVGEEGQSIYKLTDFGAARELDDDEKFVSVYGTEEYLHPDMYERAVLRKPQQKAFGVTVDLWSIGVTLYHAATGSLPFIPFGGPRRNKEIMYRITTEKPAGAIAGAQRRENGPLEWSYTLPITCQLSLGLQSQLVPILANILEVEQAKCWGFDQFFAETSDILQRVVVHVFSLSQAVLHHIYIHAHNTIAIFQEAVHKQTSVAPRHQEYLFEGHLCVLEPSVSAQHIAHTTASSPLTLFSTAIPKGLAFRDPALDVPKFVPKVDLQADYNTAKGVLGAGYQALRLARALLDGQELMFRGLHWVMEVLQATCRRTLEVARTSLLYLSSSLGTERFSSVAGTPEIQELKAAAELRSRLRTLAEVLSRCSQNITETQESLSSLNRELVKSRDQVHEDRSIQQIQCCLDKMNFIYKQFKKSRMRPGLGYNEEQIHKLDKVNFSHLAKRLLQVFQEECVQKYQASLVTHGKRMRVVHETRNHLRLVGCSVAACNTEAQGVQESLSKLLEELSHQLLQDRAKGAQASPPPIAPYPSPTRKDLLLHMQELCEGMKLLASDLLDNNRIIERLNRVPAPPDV

IC50 [1] [nM]	IC50 (IKKε) [nM]	SMILES
5	10	N#Cc1cc(-c2ccnc(Nc3cnn(CC(F)F)c3)n2)ccc1OC1CCOCC1 [Compound A44, 5-{2-[1-(2,2-Difluoroethyl)-1H-pyrazol-4-ylamino]pyrimidin-4-yl}-2-(tetrahydropyran-4-yloxy)benzonitrile]
5500	650	COCCn1cc(Nc2cc(-c3ccc(OCC4CCN(C(C)=O)CC4)c(C#N)c3)ccn2)cn1 [Compound A114, 2-(1-acetylpiperidin-4-ylmethoxy)-5-{2-[1-(2-methoxyethyl)-1H-pyrazol-4-ylamino]pyridin-4-yl}benzonitrile]
460	320	N#Cc1cc(-c2ccnc(Nc3cnn(CCn4cccn4)c3)c2)ccc1OC1CCOCC1 [Compound A38, 5-{2-[1-(2-Pyrazol-1-ylethyl)-1H-pyrazol-4-ylamino]pyridin-4-yl}-2-(tetrahydropyran-4-yloxy)benzonitrile]
460	96	N#Cc1cc(-c2ccnc(Nc3cn[nH]c3)c2)ccc1OCC1CC1 [Compound A104, 2-cyclopropylmethoxy-5-[2-(1H-pyrazol-4-ylamino)pyridin-4-yl]-benzonitrile]
230	150	N#Cc1cc(-c2ccnc(Nc3cc(N4CCOCC4)ccn3)c2)ccc1OC1CCOCC1 [Compound A82, 5-[2-(4-morpholin-4-ylpyridin-2-ylamino)pyridin-4-yl]-2-(tetrahydropyran-4-yloxy)benzonitrile]
330	390	N#Cc1cc(-c2ccnc(Nc3cncc(N4CCOCC4)n3)c2)ccc1OC1CCOCC1 [Compound A85, 5-[2-(6-morpholin-4-ylpyrazin-2-ylamino)pyridin-4-yl]-2-(tetrahydropyran-4-yloxy)benzonitrile]
8	13	N#Cc1cc(-c2ccnc(Nc3cc(CO)ccn3)c2)ccc1OC1CCOCC1 [Compound A18, 5-[2-(4-Hydroxymethylpyridin-2-ylamino)pyridin-4-yl]-2-(tetrahydropyran-4-yloxy)benzonitrile]
1500	1100	CC(=O)N1CCC(COc2ccc(-c3ccnc(Nc4ccc(CO)cn4)c3)cc2C#N)CC1 [Compound A115, 2-(1-acetylpiperidin-4-ylmethoxy)-5-[2-(5-hydroxymethylpyridin-2-ylamino)pyridin-4-yl]benzonitrile]
7	5	N#Cc1cc(-c2ccnc(Nc3cnn(C4CCNC4)c3)n2)ccc1OC1CCOCC1 (stereo not shown) [Compound A40, 5-[2-(1-Pyrrolidin-3-yl-1H-pyrazol-4-ylamino)pyrimidin-4-yl]-2-(tetrahydropyran-4-yloxy)benzonitrile]
380	140	N#Cc1cc(-c2ccnc(Nc3cn[nH]c3)c2)ccc1OCC1CCC1 [Compound A109, 2-cyclobutylmethoxy-5-[2-(1H-pyrazol-4-ylamino)pyridin-4-yl]benzonitrile]
300	300	N#Cc1cc(-c2ccnc(Nc3nc(C4CC4)cs3)n2)ccc1OC1CCOCC1 [Compound A87, 5-[2-(4-cyclopropylthiazol-2-ylamino)pyrimidin-4-yl]-2-(tetrahydropyran-4-yloxy)benzonitrile]
89	200	N#Cc1cc(-c2ccnc(Nc3ccc(CO)cn3)c2)ccc1OCC1CCC1 [Compound A111, 2-cyclobutylmethoxy-5-[2-(5-hydroxymethylpyridin-2-ylamino)pyridin-4-yl]benzonitrile]
220	65	COCCn1cc(Nc2cc(-c3ccc(OCC4CC4)c(C#N)c3)ccn2)cn1 [Compound A105, 2-cyclopropylmethoxy-5-{2-[1-(2-methoxyethyl)-1H-pyrazol-4-ylamino]-pyridin-4-yl}benzonitrile]
160	200	Cn1nc(Nc2nccc(-c3ccc(OC4CCOCC4)c(C#N)c3)n2)ccc1=O [Compound A68, 5-[2-(1-methyl-6-oxo-1,6-dihydropyridazin-3-ylamino)pyrimidin-4-yl]-2-(tetrahydropyran-4-yloxy)benzonitrile]
